Results on nine molecules are retold here after patent US20260317324A1, “BIFUNCTIONAL COMPOUNDS FOR DEGRADING BRAF VIA UBIQUITIN PROTEOSOME PATHWAY” (Nurix Therapeutics, Inc., priority 2023, published 2026).

What all share (assay type): cell-based
One experiment concerns the target T1, BRAF V600E (Homo sapiens, UniProt P15056, V600E).
T1 construct: endogenous C-terminal HiBiT fusion tag on BRAF V600E allele; endogenous in cells; host or cells: A375 clone 1F10 (CRISPR-Cas9 knock-in of the HiBiT tag; parental A375 from ATCC)
The experiment can be described thus: BRAF HiBiT degradation assay, C-terminal HiBiT-tagged BRAF V600E A375 cells (clone 1F10), Nano-Glo HiBiT Lytic assay. To be noted: for Dmax: A-375. The method, boiled down: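 Using CRISPR-engineered A375 cells that carry a C-terminal HiBiT tag on endogenous BRAF V600E, remaining protein was quantified by lytic luminescence relative to DMSO-treated cells, with wildtype A375 as the background control. DC50 denotes the concentration giving 50% degradation.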
On the technique in general: The HiBiT peptide binds its large partner to form an active luciferase.

A further experiment concerns the target T2, BRAF G466V (Homo sapiens, UniProt P15056, G466V).
T2 construct: Horizon Discovery (HCT-116 BRAF−/− cells); host or cells: HCT-116 BRAF−/− cells, clone 8, lentiviral transduction
Briefly: BRAF HiBiT degradation assay, C-terminal HiBiT-tagged BRAF G466V overexpressed in HCT-116 BRAF−/− cells (clone 8), Nano-Glo HiBiT Lytic assay. An outline of the steps: (§1)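 Degradation assay in HCT-116 BRAF−/− cells carrying lentiviral HiBiT-tagged mutant BRAF. The readout is % protein remaining across 1 μM to 0.01 nM compound, and DC50 marks 50% remaining.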

Another experiment deals with T3, BRAF G469A (Homo sapiens, UniProt P15056, G469A).
T3 construct: Horizon Discovery (HCT-116 BRAF−/− cells); host or cells: HCT-116 BRAF−/− cells, clone 34, lentiviral transduction
Briefly: BRAF HiBiT degradation assay, C-terminal HiBiT-tagged BRAF G469A overexpressed in HCT-116 BRAF−/− cells (clone 34), Nano-Glo HiBiT Lytic assay. The method, boiled down: as §1

The next experiment deals with T4, BRAF D594G (Homo sapiens, UniProt P15056, D594G).
T4 construct: Horizon Discovery (HCT-116 BRAF−/− cells); host or cells: HCT-116 BRAF−/− cells, clone 63, lentiviral transduction
The experiment can be described thus: BRAF HiBiT degradation assay, C-terminal HiBiT-tagged BRAF D594G overexpressed in HCT-116 BRAF−/− cells (clone 63), Nano-Glo HiBiT Lytic assay. An outline of the steps:
as §1

The mark [1] stands for this setting: A375 (BRAF V600E), DC50 at 50%: fitted conc. at Y=50.
[2] abbreviates: A375 (BRAF V600E), percentage protein degraded at maximal compound effect relative to DMSO.
Setting [3] is: BRAF G466V, DC50 at 50%: fitted conc. at Y=50.
[4] abbreviates: HCT-116, BRAF G466V, percentage protein degraded at maximal compound effect relative to DMSO.
Setting [5] is: Class 2, BRAF G469A, DC50 at 50%: fitted conc. at Y=50.
Where [6] appears, read: HCT-116, Class 2, BRAF G469A, percentage protein degraded at maximal compound effect relative to DMSO.
Where [7] appears, read: BRAF D594G, DC50 at 50%: fitted conc. at Y=50.
[8] abbreviates: HCT-116, BRAF D594G, percentage protein degraded at maximal compound effect relative to DMSO.
[9] abbreviates: A375 (BRAF V600E, Class 1), DC50 at 50% degradation.
[10] abbreviates: A375 (BRAF V600E, Class 1), observed Dmax, % protein degraded relative to DMSO control.
The mark [11] stands for this setting: BRAF G466V (Class 3), HCT-116 BRAF−/− cells, DC50 at 50% degradation.
Where [12] appears, read: BRAF G466V (Class 3), HCT-116 BRAF−/− cells, observed Dmax relative to DMSO control.
Setting [13] is: BRAF G469A (Class 2), HCT-116 BRAF−/− cells, DC50 at 50% degradation.
[14] abbreviates: BRAF G469A (Class 2), HCT-116 BRAF−/− cells, observed Dmax relative to DMSO control.
[15] abbreviates: BRAF D594G (Class 3), HCT-116 BRAF−/− cells, DC50 at 50% degradation.
Where [16] appears, read: BRAF D594G (Class 3), HCT-116 BRAF−/− cells, observed Dmax relative to DMSO control.

Where only a bound is given, the exact number is not on record here.

T4 sequence (P15056 whole entry D594G): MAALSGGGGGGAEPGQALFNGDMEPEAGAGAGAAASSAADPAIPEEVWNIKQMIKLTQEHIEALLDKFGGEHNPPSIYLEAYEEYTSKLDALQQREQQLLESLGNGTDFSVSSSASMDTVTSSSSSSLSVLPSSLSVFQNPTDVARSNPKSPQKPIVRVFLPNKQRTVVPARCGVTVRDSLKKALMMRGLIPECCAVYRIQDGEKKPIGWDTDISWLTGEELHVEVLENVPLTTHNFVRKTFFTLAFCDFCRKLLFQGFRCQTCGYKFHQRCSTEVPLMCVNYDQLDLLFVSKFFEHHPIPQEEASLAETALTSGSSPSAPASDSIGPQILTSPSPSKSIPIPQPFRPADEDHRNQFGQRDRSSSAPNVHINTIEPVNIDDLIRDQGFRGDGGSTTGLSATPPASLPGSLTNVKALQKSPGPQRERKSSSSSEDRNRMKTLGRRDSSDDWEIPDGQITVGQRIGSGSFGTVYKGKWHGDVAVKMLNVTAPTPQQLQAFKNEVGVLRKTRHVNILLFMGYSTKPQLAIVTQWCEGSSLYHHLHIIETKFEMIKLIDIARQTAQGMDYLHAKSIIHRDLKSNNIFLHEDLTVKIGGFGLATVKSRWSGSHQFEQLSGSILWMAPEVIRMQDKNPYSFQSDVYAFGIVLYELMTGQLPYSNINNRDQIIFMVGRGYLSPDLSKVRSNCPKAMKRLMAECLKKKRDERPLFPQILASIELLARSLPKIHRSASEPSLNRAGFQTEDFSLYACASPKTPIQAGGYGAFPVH
T1 sequence (P15056 whole entry V600E, the tested form may be a part): as the sequence (P15056 whole entry D594G) above, with G594D, V600E counted along it
T3 sequence (P15056 whole entry G469A): as the sequence (P15056 whole entry D594G) above, with G469A, G594D counted along it
T2 sequence (P15056 whole entry G466V): as the sequence (P15056 whole entry D594G) above, with G466V, G594D counted along it

As for `CCCS(=O)(=O)Nc1cccc(-c2cn(-c3ccc(N4CCN(CC5CCN(c6ccc(C7CCC(=O)NC7=O)cn6)CC5)CC4)nc3)nc2-c2ccncc2)c1F` (racemic) [Compound 3, Rac-N-{3-[1-(6-{4-[(1-{5-[(3R)-2,6-dioxopiperidin-3-yl]pyridin-2-yl}piperidin-4-yl)methyl]piperazin-1-yl}pyridin-3-yl)-3-(pyridin-4-yl)-1H-pyrazol-4-yl]-2-fluorophenyl}propane-1-sulfonamide], the DC50 (in general, the concentration giving 50% degradation) on BRAF V600E (setting [1]) was 50 to 500 nM; on BRAF G466V (setting [3]) it was 10 to 50 nM; on BRAF G469A (setting [5]), above 500 nM; at BRAF D594G (setting [7]) it was 10 to 50 nM. Moreover, the Dmax (commonly the largest share of the target that was removed) at BRAF V600E (setting [2]) is above 70%; at BRAF G466V (setting [4]), 30 to 70%; on BRAF G469A (setting [6]) it was 30 to 70%; on BRAF D594G (setting [8]) it was 30 to 70%.
Consider `CCN(C)S(=O)(=O)Nc1cccc(-c2nc(C3CCN(C(=O)C4CCN(C(=O)C5CCN(c6ccc(C7CCC(=O)NC7=O)cn6)CC5)CC4)CC3)sc2-c2ccnc(N)n2)c1F` (racemic) [Compound 209, Rac-(3S)-3-{6-[4-(4-{4-[5-(2-aminopyrimidin-4-yl)-4-(3-{[ethyl(methyl)sulfamoyl]amino}-2-fluorophenyl)-1,3-thiazol-2-yl]piperidine-1-carbonyl}piperidine-1-carbonyl)piperidin-1-yl]pyridin-3-yl}piperidine-2,6-dione], for which the DC50 was below 10 nM on BRAF V600E (setting [1]), below 10 nM on BRAF G466V (setting [3]), 10 to 50 nM on BRAF G469A (setting [5]) and below 10 nM on BRAF D594G (setting [7]). Also, the Dmax on BRAF V600E (setting [2]) was above 70%; at BRAF G466V (setting [4]), above 70%; on BRAF G469A (setting [6]), 30 to 70%; on BRAF D594G (setting [8]), above 70%.
On to `C[C@@H]1CN(c2ccc(-n3cc(-c4cc(F)cc(NS(=O)(=O)N5CCCC5)c4F)c(-c4ccncc4)n3)c(F)c2)CCN1CC1CCN(c2ccc(C3CCC(=O)NC3=O)cn2)CC1` (mixture of isomers) [Compound 289, N-(3-(1-(4-((R)-4-((1-(5-((RS)-2,6-dioxopiperidin-3-yl)pyridin-2-yl)piperidin-4-yl)methyl)-3-methylpiperazin-1-yl)-2-fluorophenyl)-3-(pyridin-4-yl)-1H-pyrazol-4-yl)-2,5-difluorophenyl)pyrrolidine-1-sulfonamide], for which the DC50 is below 10 nM on BRAF V600E (setting [9]), below 10 nM on BRAF G466V (setting [11]), 10 to 50 nM at BRAF G469A (setting [13]) and below 10 nM on BRAF D594G (setting [15]). The maximal degradation (Dmax) at BRAF V600E (setting [10]), on BRAF G466V (setting [12]), at BRAF G469A (setting [14]) and on BRAF D594G (setting [16]) was above 70% in each case.
Regarding `CCCS(=O)(=O)Nc1cccc(-c2cn(-c3ccc(C4CCN(CC5CCN(c6ccc(C7CCC(=O)NC7=O)cc6)CC5)CC4)cc3)nc2-c2ccncc2)c1F` (racemic) [Compound 25, Rac-N-{3-[1-(4-{1-[(1-{4-[(3R)-2,6-dioxopiperidin-3-yl]phenyl}piperidin-4-yl)methyl]piperidin-4-yl}phenyl)-3-(pyridin-4-yl)-1H-pyrazol-4-yl]-2-fluorophenyl}propane-1-sulfonamide], the DC50 was 10 to 50 nM at BRAF V600E (setting [1]), 10 to 50 nM on BRAF G466V (setting [3]), above 500 nM on BRAF G469A (setting [5]) and above 500 nM at BRAF D594G (setting [7]). In addition, the Dmax is above 70% on BRAF V600E (setting [2]), 30 to 70% at BRAF G466V (setting [4]), below 30% on BRAF G469A (setting [6]) and 30 to 70% on BRAF D594G (setting [8]).
With `CCCS(=O)(=O)Nc1cccc(-c2nc(C(C)(C)C)sc2-c2ccnc(Nc3cccc(C4CCN(CC5CCN(c6ccc7c(=O)n(C8CCC(=O)NC8=O)ccc7c6)CC5)CC4)c3)n2)c1F` (racemic) [Compound 76, Rac-N-[3-(2-tert-butyl-5-{2-[(3-{1-[(1-{2-[(3R)-2,6-dioxopiperidin-3-yl]-1-oxo-1,2-dihydroisoquinolin-6-yl}piperidin-4-yl)methyl]piperidin-4-yl}phenyl)amino]pyrimidin-4-yl}-1,3-thiazol-4-yl)-2-fluorophenyl]propane-1-sulfonamide], the half-maximal degradation concentration (DC50) on BRAF V600E (setting [1]) is 10 to 50 nM; at BRAF G466V (setting [3]), above 500 nM; on BRAF G469A (setting [5]), above 500 nM; at BRAF D594G (setting [7]), above 500 nM. The Dmax was 30 to 70% on BRAF V600E (setting [2]), below 30% on BRAF G466V (setting [4]), below 30% at BRAF G469A (setting [6]) and below 30% at BRAF D594G (setting [8]).
Take `CCCS(=O)(=O)Nc1cccc(-c2nc(C3(C)CCN(C(=O)C4CCN(CC5CCN(c6ccc(C7CCC(=O)NC7=O)cc6)CC5)CC4)CC3)sc2-c2ccnc(N)n2)c1F` (racemic) [Compound 227, Rac-N-{3-[5-(2-aminopyrimidin-4-yl)-2-(1-{1-[(1-{4-[(3R)-2,6-dioxopiperidin-3-yl]phenyl}piperidin-4-yl)methyl]piperidine-4-carbonyl}-4-methylpiperidin-4-yl)-1,3-thiazol-4-yl]-2-fluorophenyl}propane-1-sulfonamide]: the DC50 at BRAF V600E (setting [1]) was below 10 nM; on BRAF G466V (setting [3]) it was above 500 nM; at BRAF G469A (setting [5]), above 500 nM; at BRAF D594G (setting [7]) it was above 500 nM. In addition, the maximal degradation (Dmax) at BRAF V600E (setting [2]) is above 70%; at BRAF G466V (setting [4]), 30 to 70%; at BRAF G469A (setting [6]), 30 to 70%; at BRAF D594G (setting [8]), 30 to 70%.
On to `CCCS(=O)(=O)Nc1cccc(-c2nc(C3CCC4(CC3)CCN(C(=O)C3CCN(c5ccc(C(=O)NC6CCC(=O)NC6=O)nc5)CC3)CC4)sc2-c2ccnc(N)n2)c1F` (racemic) [Compound 252, Rac-5-(4-{9-[5-(2-aminopyrimidin-4-yl)-4-[2-fluoro-3-(propane-1-sulfonamido)phenyl]-1,3-thiazol-2-yl]-3-azaspiro[5.5]undecane-3-carbonyl}piperidin-1-yl)-N-[(3R)-2,6-dioxopiperidin-3-yl]pyridine-2-carboxamide], for which the half-maximal degradation concentration (DC50) at BRAF V600E (setting [9]) was 10 to 50 nM; on BRAF G466V (setting [11]) it was above 500 nM; on BRAF G469A (setting [13]), above 500 nM; on BRAF D594G (setting [15]), above 500 nM. The greatest degradation seen (Dmax) on BRAF V600E (setting [10]) is above 70%; at BRAF G466V (setting [12]), below 30%; on BRAF G469A (setting [14]) it was below 30%; at BRAF D594G (setting [16]), below 30%.
In the case of `CCCS(=O)(=O)Nc1cccc(-c2nc(C3CCC4(CC3)CCN(CC3CCN(c5ccc(C6CCC(=O)NC6=O)cn5)CC3)CC4)sc2-c2ccnc(N)n2)c1F` (racemic) [Compound 260, Rac-N-{3-[5-(2-aminopyrimidin-4-yl)-2-{3-[(1-{5-[(3R)-2,6-dioxopiperidin-3-yl]pyridin-2-yl}piperidin-4-yl)methyl]-3-azaspiro[5.5]undecan-9-yl}-1,3-thiazol-4-yl]-2-fluorophenyl}propane-1-sulfonamide], the 50% degradation concentration (DC50) at BRAF V600E (setting [9]) was 10 to 50 nM; at BRAF G466V (setting [11]), above 500 nM; at BRAF G469A (setting [13]), above 500 nM; at BRAF D594G (setting [15]), above 500 nM. Also, the Dmax on BRAF V600E (setting [10]) was 30 to 70%; on BRAF G466V (setting [12]), below 30%; at BRAF G469A (setting [14]), below 30%; at BRAF D594G (setting [16]), below 30%.
On to `CCN(C)S(=O)(=O)Nc1cccc(-c2nc(C(C)(C)C)sc2-c2ccnc(Nc3ccc(N4CCN(C(=O)C5CCN(c6ccc(C7CCC(=O)NC7=O)cc6)CC5)CC4)cn3)n2)c1F` (racemic) [Compound 36, Rac-(3S)-3-[4-(4-{4-[6-({4-[2-tert-butyl-4-(3-{[ethyl(methyl)sulfamoyl]amino}-2-fluorophenyl)-1,3-thiazol-5-yl]pyrimidin-2-yl}amino)pyridin-3-yl]piperazine-1-carbonyl}piperidin-1-yl)phenyl]piperidine-2,6-dione], for which the half-maximal degradation concentration (DC50) was below 10 nM at BRAF V600E (setting [1]), above 500 nM at BRAF G466V (setting [3]), 10 to 50 nM on BRAF G469A (setting [5]) and above 500 nM at BRAF D594G (setting [7]). Moreover, the Dmax at BRAF V600E (setting [2]) was above 70%; on BRAF G466V (setting [4]), below 30%; at BRAF G469A (setting [6]), 30 to 70%; on BRAF D594G (setting [8]) it was 30 to 70%.
